The target in this experiment is T1, c-Met kinase (recombinant c-Met) (Homo sapiens, UniProt P08581).
T1 construct: 0.27 nM recombinant c-Met
T1 sequence (P08581 25-1390): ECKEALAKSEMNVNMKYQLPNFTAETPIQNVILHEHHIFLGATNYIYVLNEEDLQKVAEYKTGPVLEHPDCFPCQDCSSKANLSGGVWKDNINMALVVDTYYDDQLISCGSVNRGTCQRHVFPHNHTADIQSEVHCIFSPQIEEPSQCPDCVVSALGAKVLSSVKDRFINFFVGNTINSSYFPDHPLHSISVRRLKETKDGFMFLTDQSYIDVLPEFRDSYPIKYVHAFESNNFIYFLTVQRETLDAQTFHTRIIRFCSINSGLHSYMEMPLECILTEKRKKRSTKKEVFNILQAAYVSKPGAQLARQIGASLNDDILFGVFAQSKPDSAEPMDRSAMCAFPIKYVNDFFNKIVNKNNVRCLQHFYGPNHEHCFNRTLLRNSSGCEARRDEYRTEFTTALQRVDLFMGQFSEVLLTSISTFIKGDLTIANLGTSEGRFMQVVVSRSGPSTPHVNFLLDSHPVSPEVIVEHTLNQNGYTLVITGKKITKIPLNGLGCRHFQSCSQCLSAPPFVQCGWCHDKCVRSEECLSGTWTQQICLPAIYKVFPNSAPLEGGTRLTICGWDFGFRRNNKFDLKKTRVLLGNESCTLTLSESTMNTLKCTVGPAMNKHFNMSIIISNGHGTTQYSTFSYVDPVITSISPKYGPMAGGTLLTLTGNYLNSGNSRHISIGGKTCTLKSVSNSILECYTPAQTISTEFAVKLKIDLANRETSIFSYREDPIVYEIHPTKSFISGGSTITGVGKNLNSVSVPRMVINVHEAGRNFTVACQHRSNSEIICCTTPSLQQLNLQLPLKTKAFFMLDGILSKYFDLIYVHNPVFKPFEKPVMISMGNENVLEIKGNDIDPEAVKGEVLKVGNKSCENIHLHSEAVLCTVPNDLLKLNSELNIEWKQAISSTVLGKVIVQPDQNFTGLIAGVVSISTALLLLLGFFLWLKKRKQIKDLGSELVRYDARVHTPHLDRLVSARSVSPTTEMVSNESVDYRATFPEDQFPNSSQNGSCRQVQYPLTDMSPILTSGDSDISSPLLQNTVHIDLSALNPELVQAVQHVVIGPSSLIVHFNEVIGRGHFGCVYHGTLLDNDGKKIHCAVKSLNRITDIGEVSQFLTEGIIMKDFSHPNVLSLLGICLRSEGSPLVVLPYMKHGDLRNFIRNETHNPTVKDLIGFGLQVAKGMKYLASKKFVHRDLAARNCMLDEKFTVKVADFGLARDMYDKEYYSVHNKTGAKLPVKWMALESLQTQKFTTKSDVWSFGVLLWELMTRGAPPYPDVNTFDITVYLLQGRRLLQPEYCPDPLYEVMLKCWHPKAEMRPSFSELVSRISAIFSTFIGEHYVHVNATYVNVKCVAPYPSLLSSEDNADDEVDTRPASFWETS
As to the kind of experiment: In vitro kinase assay I (homogeneous time-resolved fluorescence tyrosine kinase assay). It is filed as biochemical. In short, it runs like this:
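Biotinylated peptide (0.5 μM) phosphorylated by 0.2 nM recombinant c-Met with 50 μM MgATP, 60 min at room temperature, pH 7.4, 5% DMSO. EDTA stop; HTRF read with Eu-anti-phosphotyrosine antibody and streptavidin-APC. IC50 from 4-parameter logistic fit.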
Turning to `CCn1cc(-n2ccc(=O)c(C(C)c3cccc(-c4ncc(OC5COC5)cn4)c3)n2)cn1` (single isomer, unassigned) [Example 214, 1-(1-ethyl-1H-pyrazol-4-yl)-3-((1R or S)-1-{3-[5-(oxetan-3-yloxy)pyrimidin-2-yl]phenyl}ethyl)pyridazin-4(1H)-one], the concentration for half-maximal inhibition (IC50) (commonly the concentration needed to halve the response being measured) is < 100 nM. The value for `Cn1cc(-n2ccc(=O)c(Cc3cccc(NC(=O)OCCCN4CCNCC4)c3)n2)cn1` [Example 626, 3-piperazin-1-ylpropyl (3-{[1-(1-methyl-1H-pyrazol-4-yl)-4-oxo-1,4-dihydropyridazin-3-yl]methyl}phenyl)carbamate] was < 100 nM.

On to `COCCOC(=O)Nc1cccc(Cc2nn(-c3cnn(C)c3)ccc2=O)c1` [Example 54, 2-methoxyethyl (3-{[1-(1-methyl-1H-pyrazol-4-yl)-4-oxo-1,4-dihydropyridazin-3-yl]methyl}phenyl)carbamate], for which the IC50 is < 100 nM.

Regarding `CCOCCn1cnc(-c2cccc(Cc3nn(-c4cnn(C)c4)ccc3=O)c2)n1` [Example 716, 3-{3-[1-(2-ethoxyethyl)-1H-1,2,4-triazol-3-yl]benzyl}-1-(1-methyl-1H-pyrazol-4-yl)pyridazin 4(1H)-one], the IC50 lay in the range of 100 to 1000 nM. As for `CC(c1cccc(-c2ncc(OCC(C)(C)O)cn2)c1)c1nn(-c2cnn(C)c2)ccc1=O` (single isomer, unassigned) [Example 380, 3-((1S or R)-1-{3-[5-(2-hydroxy-2-methylpropoxy)pyrimidin-2-yl]phenyl}ethyl)-1-(1-methyl-1H-pyrazol-4-yl)pyridazin-4(1H)-one], the figure is < 100 nM. As for `CN1CCN(CCCOC(=O)Nc2cccc(Cc3nn(-c4cc(F)cc(F)c4)ccc3=O)c2)CC1` [Example 518], the figure is < 100 nM; as for `CCOC(=O)Nc1cccc(C(F)c2nn(-c3ccc(Cl)cc3)ccc2=O)c1` (racemic) [Example 641, rac-Ethyl(3-{[1-(4-chlorophenyl)-4-oxo-1,4-dihydropyridazin-3-yl](fluoro)methyl}phenyl)carbamate], 100 to 1000 nM. As for `O=c1ccn(-c2ccc(F)c(F)c2)nc1Cc1cccc(-c2ncc(O)cn2)c1` [Example 188, 1-(3,4-Difluorophenyl)-3-[3-(5-hydroxypyrimidin-2-yl)benzyl]pyridazin-4(1H)-one], the figure is 100 to 1000 nM; as for `CCCn1cnc(-c2cccc(Cc3nn(-c4cnn(CCO)c4)ccc3=O)c2)n1` [compound 192, 1-[1-(2-hydroxyethyl)-1H-pyrazol-4-yl]-3-[3-(1-propyl-1H-1,2,4-triazol-3-yl)benzyl]pyridazin-4(1H)-one], < 100 nM. Take `Cn1cc(-n2ccc(=O)c(Cc3cccc(NC(=O)NC4CC4)c3)n2)cn1` [Example 492, 1-cyclopropyl-3-(3-{[1-(1-methyl-1H-pyrazol-4-yl)-4-oxo-1,4-dihydropyridazin-3-yl]methyl}phenyl)urea]: the IC50 lay in the range of 100 to 1000 nM. The value for `COCCOc1cnc(-c2cccc(Cc3nn(-c4cc(F)cc(C#N)c4)ccc3=O)c2)nc1` [Example 134, 3-fluoro-5-[3-{3-[5-(2-methoxyethoxy)pyrimidin-2-yl]benzyl}-4-oxopyridazin-1(4H)-yl]benzonitrile] was < 100 nM. The value for `COCCOCCOC(=O)Nc1cccc(Cc2nn(-c3cccc(C#N)c3)ccc2=O)c1` [Example 600, 2-(2-methoxyethoxy)ethyl (3-{[1-(3-cyanophenyl)-4-oxo-1,4-dihydropyridazin-3-yl]methyl}phenyl)carbamate] was < 100 nM. The value for `COCCOC(=O)Nc1cccc(Cc2nn(-c3cn[nH]c3)ccc2=O)c1` [Example 196, 2-methoxyethyl (3-{[4-oxo-1-(1H-pyrazol-4-yl)-1,4-dihydropyridazin-3-yl]methyl}phenyl)carbamate] was < 100 nM; that for `CCCn1cnc(-c2cccc(C(C)c3nn(-c4cnn(CC)c4)ccc3=O)c2)n1` (single isomer, unassigned) [Example 689] was < 100 nM; that for `Cn1cnc(-c2cccc(Cc3nn(-c4cnn(C)c4)ccc3=O)c2)c1` [Example 673, 3-[3-(1-methyl-1H-imidazol-4-yl)benzyl]-1-(1-methyl-1H-pyrazol-4-yl)pyridazin-4(1H)-one] was 100 to 1000 nM.

Consider `CCOC(C)(C)c1cnc(-c2cccc(Cc3nn(-c4cnn(C)c4)ccc3=O)c2)nc1` [Example 169, 3-{3-[5-(1-ethoxy-1-methylethyl)pyrimidin-2-yl]benzyl}-1-(1-methyl-1H-pyrazol-4-yl)pyridazin-4(1H)-one], for which the IC50 was in the range of 100 to 1000 nM. Regarding `COc1cnc(-c2cccc(C(C)c3nn(-c4cnn(C)c4)ccc3=O)c2)nc1` (single isomer, unassigned) [Example 203, 3-{(1S or R)-1-[3-(5-Methoxypyrimidin-2-yl)phenyl]ethyl}-1-(1-methyl-1H-pyrazol-4-yl)pyridazin-4(1H)-one], the IC50 is 100 to 1000 nM. The value for `CC(C)COC(=O)Nc1cccc(Cc2nn(-c3ccc(-c4cnn(C)c4)cc3)ccc2=O)c1` [Example 732, 2-methylpropyl [3-({1-[4-(1-methyl-1H-pyrazol-4-yl)phenyl]-4-oxo-1,4-dihydropyridazin-3-yl}methyl)phenyl] carbamate] was 100 to 1000 nM. Turning to `COCCOc1cnc(-c2cccc(Cc3nn(-c4ccc(Cl)c(F)c4)ccc3=O)c2)nc1` [Example 153, 1-(4-chloro-3-fluorophenyl)-3-{3-[5-(2-methoxyethoxy)pyrimidin-2-yl]benzyl}pyridazin-4(1H)-one], the IC50 was < 100 nM. The value for `Cn1cc(-n2ccc(=O)c(Cc3cccc(NC(=O)OCCN4CCS(=O)(=O)CC4)c3)n2)cn1` [Example 567, 2-(1,1-dioxidothio-morpholin-4-yl)ethyl (3-{[1-(1-methyl-1H-pyrazol-4-yl)-4-oxo-1,4-dihydropyridazin-3-yl]methyl}phenyl)carbamate] was < 100 nM. Consider `CCCOC(=O)Nc1cccc(Cc2nn(-c3cccc(Br)c3)ccc2=O)c1` [Example 12, propyl (3-{[1-(3-bromophenyl)-4-oxo-1,4-dihydropyridazin-3-yl]methyl}phenyl)carbamate], for which the IC50 was < 100 nM. The value for `Cn1cc(-n2ccc(=O)c(Cc3cccc(N4CCOC4=O)c3)n2)cn1` [Example 637, 1-(1-Methyl-1H-pyrazol-4-yl)-3-[3-(2-oxo-1,3-oxazolidin-3-yl)benzyl]pyridazin-4(1H)-one] was 1000 to 3000 nM; that for `Cn1cc(-n2ccc(=O)c(Cc3cccc(-c4ncc(CN5CCOCC5)cn4)c3)n2)cn1` [Example 426, 1-(1-Methyl-1H-pyrazol-4-yl)-3-{3-[5-(morpholin-4-ylmethyl)pyrimidin-2-yl]benzyl}pyridazin-4(1H)-one] was < 100 nM; that for `CCOCc1cnc(-c2cccc(C(C)c3nn(-c4cnn(C)c4)ccc3=O)c2)nc1` (racemic) [Example 221, rac-3-(1-{3-[5-(ethoxymethyl)pyrimidin-2-yl]phenyl}ethyl)-1-(1-methyl-1H-pyrazol-4-yl)pyridazin-4(1H)-one] was < 100 nM.

On to `CCOC(=O)Nc1cccc(Cc2nn(-c3cc(F)c(F)c(F)c3)ccc2=O)c1` [Example 2, Ethyl(3-{[4-oxo-1-(3,4,5-trifluorophenyl)-1,4-dihydropyridazin-3-yl]methyl}phenyl)carbamate], for which the IC50 is < 100 nM. The value for `Cn1cc(-n2ccc(=O)c(Cc3ccc4ncc(OCC5(C)COC5)cc4c3)n2)cn1` [Example 62, 3-({3-[(3-methyloxetan-3-yl)methoxy]quinolin-6-yl}methyl)-1-(1-methyl-1H-pyrazol-4-yl)pyridazin-4(1H)-one] was < 100 nM; that for `CCOc1cnc(-c2cccc(C(CCC#N)c3nn(-c4cn[nH]c4)ccc3=O)c2)nc1` (racemic) [Example 665, rac-4-[3-(5-Ethoxypyrimidin-2-yl)phenyl]-4-[4-oxo-1-(1H-pyrazol-4-yl)-1,4-dihydropyridazin-3-yl]butanenitrile] was 100 to 1000 nM.

For the molecule `O=C(Nc1cccc(Cc2nn(-c3cc(F)cc(F)c3)ccc2=O)c1)OCCN1CCCC1=O` [Example 592, 2-(2-oxopyrrolidin-1-yl)ethyl (3-{[1-(3,5-difluorophenyl)-4-oxo-1,4-dihydropyridazin-3-yl]methyl}phenyl)carbamate], the IC50 is < 100 nM. Turning to `Cn1cc(-n2ccc(=O)c(Cc3cccc(NC(=O)OCC(N)C(F)(F)F)c3)n2)cn1` (racemic) [Example 619, rac-2-amino-3,3,3-trifluoropropyl (3-{[1-(1-methyl-1H-pyrazol-4-yl)-4-oxo-1,4-dihydropyridazin-3-yl]methyl}phenyl)carbamate], the IC50 is < 100 nM. The value for `CCOC(=O)Nc1cccc(Cc2nn(-c3cccc(OC)c3)ccc2=O)c1` [Example 649, Ethyl(3-{[1-(3-methoxyphenyl)-4-oxo-1,4-dihydropyridazin-3-yl]methyl}phenyl)carbamate] was 100 to 1000 nM. As for `O=C(Nc1cccc(Cc2nn(-c3cc(F)cc(F)c3)ccc2=O)c1)OCCN1CCNCC1` [Example 628, 2-piperazin-1-ylethyl (3-{[1-(3,5-difluorophenyl)-4-oxo-1,4-dihydropyridazin-3-yl]methyl}phenyl)carbamate], the concentration for half-maximal inhibition (IC50) is < 100 nM. In the case of `COCCOC(=O)Nc1cccc(Cc2nn(-c3cc(Cl)cc(C#N)c3)ccc2=O)c1` [Example 127, 2-methoxyethyl (3-{[1-(3-chloro-5-cyanophenyl)-4-oxo-1,4-dihydropyridazin-3-yl]methyl}phenyl)carbamate], the IC50 is < 100 nM.

As to `CCOC(=O)Nc1cccc(Cc2nn(-c3cnn(CC(F)(F)F)c3)ccc2=O)c1` [Example 111, ethyl [3-({4-oxo-1-[1-(2,2,2-trifluoroethyl)-1H-pyrazol-4-yl]-1,4-dihydropyridazin-3-yl}methyl)phenyl]carbamate], the IC50 was < 100 nM. As for `CCOc1cnc(-c2cccc(C(F)c3nn(-c4cnn(C)c4)ccc3=O)c2)nc1` (single isomer, unassigned) [Example 655, 3-[(S or R)-[3-(5-ethoxypyrimidin-2-yl)phenyl](fluoro)methyl]-1-(1-methyl-1H-pyrazol-4-yl)pyridazin-4(1H)-one], the figure is 100 to 1000 nM.

These data come from patent US20120264735A1 (priority 2009, published 2012).
